What was measured:
Botrytis Cineria = assay: Mycelial inhibition, Botrytis; format: cell-based; details: 24 hours, relative to standard DIFOLATAN
Method: (§1) A number of the compounds of the present invention were evaluated for in-vitro fungicidal effectiveness by means of a mycelial inhibition test. This test is designed to measure the fungitoxic activity of fungicidal chemicals in terms of their degree of inhibition of mycelium growth. Each compound to be tested was dissolved in acetone to 500 ppm concentration. Paper strips were infused with the particular mycelium growth by covering the paper with a potato dextrose broth culture of mycelial suspension. The papers were then placed on potato dextrose agar plates and sprayed by means of a microsprayer with the fungicidal solution. The treated paper strips were incubated at 25° C. and the data is taken after 24 hours. Fungicidal activities are measured by a zone of inhibited mycelial growth from the center of the paper strip. The effectiveness of the compounds tested for fungicidal activity is reported in Table IIa for those compounds which were effective in inhibiting mycelial growth. The activity is reported in terms of [formula]

[1] = test system: Crabgrass (Digitaria sanguinalis); assay: Post-emergent herbicidal test, Crabgrass; format: in vivo; details: 504 h, post-emergence, 33 micrograms/cm^2, 3 weeks
Fusarium Moniliforme = assay: Mycelial inhibition, Fusarium; format: cell-based; details: Fusarium verticillioides, 24 hours, relative to standard DIFOLATAN
Method: as §1

Phytophthora infestans = assay: whole plant or invertebrate; format: in vivo; details: in Solanum lycopersicum, read-out: % Control Tom. L. Bl.
Plasmopara viticola = assay: Grape Downy Mildew control, detached grape leaves; format: in vivo; details: in Vitis vinifera, Vitis vinifera Emperor detached leaves, read-out: % Control Grape D.M.
Method: The compounds of the invention were tested for the control of the grape downy mildew organism Plasmopara viticola. Detached leaves, between 70 and 85 mm in diameter, of 7-week old Vitis vinifera cultivar Emperor grape seedlings were used as hosts. The leaves were sprayed with a 250 ppm solution of the test compound in acetone. The sprayed leaves were dried, inoculated with a spore suspension of the organism, placed in a humid environmental chamber and incubated at 66° to 68° F. and about 100% relative humidity. After incubation for two days, the plants were then held in a greenhouse seven to nine days; then the amount of disease control was determined. The percent disease control provided by a given gest compound was based on the percent disease reduction relative to untreated check plants.

Elodea canadensis = assay: Aquatic weeds control, Elodea; format: in vivo; details: 7 to 10 days, read-out: Algicidal Activity % Control Elodea
Method: (§2) Representative compounds of the invention were tested as aquatic herbicides and algicides by the following method. The weed test species were Lemna minor, Elodea canadensis and the algae used was Spirulina maxima.
(§3) An acetone solution of the test compound and a small amount of an alkylarylpolyoxyethylene glycol-containing surfactant was prepared. This solution was mixed with a nutrient solution in quantity sufficient to give a concentration of 2 ppm. Eight oz. plastic cups were filled with 150 ml of this solution. A sample of the test, Lemna and Elodea, was added together to each cup. Forty ml of Spirulina culture with the 2 ppm treatment was placed in 11/2 oz plastic cups (#4 glass vials used after June 9, 1980). The containers were then placed in an illuminated environment maintained at a temperature of about 20° C. for incubation. The containers were observed periodically for growth (as compared to an untreated check). The effectiveness of the test compound was determined based on a final observation of growth after 7 to 10 days. The results of the test on a 0-to-100 basis--0 indicating no effectiveness and 100 indicating complete effectiveness--are reported in Table IV.

[2] = test system: Lambsquarter (Chenopodium album); assay: Pre-emergent herbicidal test, Lambsquarter; format: in vivo; details: 504 h, pre-emergence, 33 micrograms/cm^2, 3 weeks, read-out: Herbicidal Activity Pre-Emergence % Control L'Qtr.
Method: (§4) An acetone solution of the test compound was prepared by mixing 750 mg of the compound, 220 mg of a nonionic surfactant and 25 ml of acetone. This solution was added to approximately 125 ml of water containing 156 mg of surfactant.
(§5) Seeds of the test vegetation were planted in a pot of […] and the test solution was sprayed uniformly onto the soil surface at a dose of 33 micrograms/cm^2. The pot was watered and placed in a greenhouse. […] At the end of this period, the herbicidal effectiveness of the compound was rated based on the physiological observations. A 0-to-100 scale was used, 0 representing no phytotoxicity, 100 representing complete kill.

[3] = test system: Lambsquarter (Chenopodium album); assay: Post-emergent herbicidal test, Lambsquarter; format: in vivo; details: 504 h, post-emergence, 33 micrograms/cm^2, 3 weeks, read-out: Herbicidal Activity Post-Emergence % Control L'Qtr.
[4] = test system: Watergrass (Ethinochloa crusgalli); assay: Post-emergent herbicidal test, Watergrass; format: in vivo; details: 504 h; post-emergence; 33 micrograms/cm^2; 3 weeks
Soybean [5] = assay: Pre-emergent herbicidal test, Soybean; format: in vivo; details: Glycine max, 504 h; pre-emergence; 33 micrograms/cm^2; 3 weeks; read-out: Herbicidal Activity Pre-Emergence % Control Soybean
Method: as §4, §5

Lemna minor = assay: Aquatic weeds control, Lemna; format: in vivo; details: 7 to 10 days, read-out: Algicidal Activity % Control Lemna
Method: as §2, §3

[6] = test system: Mustard (Brassica arvensis); assay: Post-emergent herbicidal test, Mustard; format: in vivo; details: 504 h, post-emergence, 33 micrograms/cm^2, 3 weeks
Spirulina maxima = assay: Algae control, Spirulina; format: cell-based; details: Limnospira maxima, 7 to 10 days, read-out: Algicidal Activity % Control Spirulina
Method: as §2, §3

Soybean [7] = assay: Post-emergent herbicidal test, Soybean; format: in vivo; details: Glycine max, 504 h; post-emergence; 33 micrograms/cm^2; 3 weeks; read-out: Herbicidal Activity Post-Emergence % Control Soybean
[8] = test system: Crabgrass (Digitaria sanguinalis); assay: Pre-emergent herbicidal test, Crabgrass; format: in vivo; details: 504 h, pre-emergence, 33 micrograms/cm^2, 3 weeks
Method: as §4, §5

SMILES | inhibition at 500 ppm (Botrytis Cineria) | pest or weed control at 33 µg/cm2 [1] | inhibition at 500 ppm (Fusarium Moniliforme) | pest or weed control at 250 ppm (Phytophthora infestans) | pest or weed control at 250 ppm (Plasmopara viticola) | activity at 2 ppm (Elodea canadensis) | pest or weed control at 33 µg/cm2 [2] | pest or weed control at 33 µg/cm2 [3] | pest or weed control at 33 µg/cm2 [4] | plant injury at 33 µg/cm2 (Soybean [5]) | activity at 2 ppm (Lemna minor) | pest or weed control at 33 µg/cm2 [6] | activity at 2 ppm (Spirulina maxima) | plant injury at 33 µg/cm2 (Soybean [7]) | pest or weed control at 33 µg/cm2 [8]
CC1(C)N=C(SCSC#N)SC1=CSc1ccc(Cl)cc1 [Compound 1, 2-thiocyanomethylthio-4,4-dimethyl-5-(4-chlorophenylthio)methylenethiazoline] | 0% | 0% | 0% | 21% | 100% | 0% | 0% | 0% | 0% | 0% | 0% | 0% | 0% | 0% | 0%
CC1(C)N=C(SCSC#N)SC1=C(Cl)Cl [Compound 2, 2-thiocyanomethylthio-4,4-dimethyl-5-dichloromethylenethiazoline] | 32% | 25% | 29% | 0% | 88% | 70% | 0% | 40% | 45% | 0% | 50% | 63% | 45% | 10% | 0%
CCC1(CC)N=C(SCSC#N)SC1=CBr [Compound 5, 2-thiocyanomethylthio-4,4-diethyl-5-bromo-methylenethiazoline] | 0% | 30% | 0% | 20% | 100% | 55% | 0% | 33% | 58% | 0% | 0% | 35% | 40% | 20% | 0%
C=C1SC(SCSC#N)=NC1(CC)CC [Compound 6, 2-thiocyanomethylthio-4,4-diethyl-5-methylenethiazoline] | 30% | 45% | 31% | 0% | 0% | 0% | 73% | 55% | 35% | 30% | 0% | 35% | 75% | 15% | 0%
C=C1SC(SCSC#N)=NC1(C)C [Compound 7, 2-Thiocyanomethylthio-4,4-dimethyl-5-methylenethiazoline] | 82% | 35% | 32% | 75% | 50% | 85% | 60% | 55% | 22% | 45% | 90% | 50% | 90% | 0% | 0%
C=C1SC(SCSC#N)=NC12CCCCC2 [Compound 8] | 26% | 20% | 0% | 29% | 100% | 80% | 0% | 40% | 38% | 0% | 60% | 25% | 70% | 33% | 0%
